According to patent US20110190336A1, “AZABENZIMIDAZOLONES” (CARA THERAPEUTICS, INC., priority 2008, published 2011):

What was measured:
[1] = biological target: T1, human DP2 receptor (Homo sapiens, UniProt Q9Y5Y4); assay: Prostaglandin D2 binding inhibition assay (scintillation proximity assay, 3H PGD2, membranes of transfected CHO cells); conditions: SPA, 5.5 nM 3H PGD2, CHO-K1 FLP-In human DP2 membranes; upper limit determinable 30 μM; read-out: IC50 ranges for inhibition of PGD2 binding to human DP2
T1 construct: expressed in transfected cells; host or cells: CHO-K1 FLP-In (Invitrogen, catalog no. R758-07), stably transfected
T1 sequence (Q9Y5Y4 1-395): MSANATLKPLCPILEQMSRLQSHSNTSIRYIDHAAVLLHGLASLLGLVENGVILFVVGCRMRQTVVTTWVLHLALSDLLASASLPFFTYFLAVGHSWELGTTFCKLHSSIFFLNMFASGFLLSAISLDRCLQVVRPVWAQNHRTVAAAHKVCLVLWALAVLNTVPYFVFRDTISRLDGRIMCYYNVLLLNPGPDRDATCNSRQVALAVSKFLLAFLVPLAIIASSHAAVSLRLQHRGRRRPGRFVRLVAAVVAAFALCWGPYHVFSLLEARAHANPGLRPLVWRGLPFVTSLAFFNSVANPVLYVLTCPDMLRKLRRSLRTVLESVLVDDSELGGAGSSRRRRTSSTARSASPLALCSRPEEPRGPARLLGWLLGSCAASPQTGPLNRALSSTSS
In short: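 Membranes (5 μg) from CHO-K1 cells stably expressing human DP2 were mixed with WGA SPA beads and 5.5 nM 3H PGD2 in Tris buffer with 10 mM MgCl2, 100 mM NaCl, 0.1% BSA, plus compound. After 60 min at room temperature, CPM were read; IC50 from two-parameter nonlinear regression.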

[2] = biological target: T1, human DP2 receptor; assay: Measurement of inhibition of intracellular cAMP induction (LANCE cAMP TR-FRET); type: cell-based; conditions: human DP2 cells
Description: The ability of compounds to act as antagonists or agonists at the human DP2 receptor was determined by measuring changes in intracellular cAMP levels using a LANCE cAMP detection kit (PerkinElmer, catalog no. AD0264) utilizing time-resolved fluorescence resonance energy transfer (TR-FRET).
Human DP2 cells were grown as described above. Cells were diluted to 2×10^5 cells/mL, and pre-incubated with 0.5 mM […] or IBMX (Sigma, catalog no. I7018). Antibody was added to all the cells as per the manufacturer's instructions. For antagonist experiments, cells were then pre-stimulated for 15 minutes with 4 μM of the water soluble forskolin derivative NKH-477 (Tocris, catalog no. 1603) to increase intracellular cAMP levels. An aliquot of cells was removed for use in uninduced controls. […] After a three hour equilibration, plates were read on an Envision multi-mode detector (PerkinElmer). TR-FRET was measured using a 330-380 nm excitation filter, 615 and 665 nm emission filters, and a 380 nm dichroic mirror set at a Z-height of 11 mm.
The cAMP concentration in each well was back-calculated from a cAMP standard curve run concurrently with each assay. Cyclic AMP responses were expressed as a percent of the difference between the maximum and minimum responses, determined from the induced and uninduced controls, respectively. […]

Row | Compound | IC50 [1] | EC50 ([2]; 4 μM NKH-477 pre-stimulation, 30 nM PGD2, read-out: EC50, antagonism of intracellular cAMP induction) | mode of action at human DP2 (antagonist or agonist) ([2]; intracellular cAMP)
1 | CS(=O)(=O)c1ccccc1S(=O)(=O)N1CCC(n2c(=O)n(CC(=O)O)c3cccnc32)CC1 [Compound 63, 2-(3-(1-(2-(methylsulfonyl)phenyl-sulfonyl)piperidin-4-yl)-2-oxo-2,3-dihydro-1H-imidazo[4,5-b]pyridin-1-yl)acetic acid] | < 1 µM | < 1 µM | antagonist
2 | O=C(O)Cn1c(=O)n(C2CCN(S(=O)(=O)c3ccccc3Cl)CC2)c2cccnc21 [Compound 133, 2-(1-(1-(2-chlorophenylsulfonyl)piperidin-4-yl)-2-oxo-1H-imidazo[4,5-b]pyridin-3(2H)-yl)acetic acid] | > 30 µM | – | –
3 | O=C(O)Cn1c(=O)n(C2CCN(S(=O)(=O)c3ccc(Cl)cc3Cl)CC2)c2cccnc21 [Compound 134, 2-(1-(1-(2,4-dichlorophenylsulfonyl)piperidin-4-yl)-2-oxo-1H-imidazo[4,5-b]pyridin-3(2H)-yl)acetic acid] | > 30 µM | – | –
4 | CS(=O)(=O)c1ccccc1S(=O)(=O)N1CCC(n2c(=O)n(CC(=O)O)c3ncccc32)CC1 [Compound 135, 2-(1-(1-(2-(methylsulfonyl)phenyl-sulfonyl)piperidin-4-yl)-2-oxo-1H-imidazo[4,5-b]pyridin-3(2H)-yl)acetic acid] | > 30 µM | – | –
5 | O=C(O)Cn1c(=O)n(C2CCN(S(=O)(=O)c3ccc(F)cc3Cl)CC2)c2ccncc21 [Compound 140, 2-(1-(1-(2-chloro-4-fluorophenylsulfonyl)piperidin-4-yl)-2-oxo-1H-imidazo[4,5-c]pyridin-3(2H)-yl)acetic acid] | > 30 µM | – | –
6 | O=C(O)Cn1c(=O)n(C2CCN(S(=O)(=O)c3ccccc3Cl)CC2)c2ccncc21 [Compound 141, 2-(1-(1-(2-chlorophenylsulfonyl)piperidin-4-yl)-2-oxo-1H-imidazo[4,5-c]pyridin-3(2H)-yl)acetic acid] | > 30 µM | – | –
7 | O=C(O)Cn1c(=O)n(C2CCN(S(=O)(=O)c3ccc(Cl)cc3Cl)CC2)c2ccncc21 [Compound 142, 2-(1-(1-(2,4-dichlorophenylsulfonyl)piperidin-4-yl)-2-oxo-1H-imidazo[4,5-c]pyridin-3(2H)-yl)acetic acid] | > 30 µM | – | –
8 | CS(=O)(=O)c1ccccc1S(=O)(=O)N1CCC(n2c(=O)n(CC(=O)O)c3cnccc32)CC1 [Compound 143, 2-(1-(1-(2-(methylsulfonyl)phenylsulfonyl)piperidin-4-yl)-2-oxo-1H-imidazo[4,5-c]pyridin-3(2H)-yl)acetic acid] | > 30 µM | – | –
9 | Cc1cc(F)ccc1S(=O)(=O)N1CCC(n2c(=O)n(CC(=O)O)c3cnccc32)CC1 [Compound 144, 2-(1-(1-(4-fluoro-2-methylphenylsulfonyl)piperidin-4-yl)-2-oxo-1H-imidazo[4,5-c]pyridin-3(2H)-yl)acetic acid] | > 30 µM | – | –
10 | CS(=O)(=O)c1ccccc1S(=O)(=O)N1CCC(n2c(=O)n(CC(=O)O)c3ccncc32)CC1 [Compound 149, 2-(3-(1-(2-(methylsulfonyl)phenylsulfonyl)piperidin-4-yl)-2-oxo-2,3-dihydro-1H-imidazo[4,5-c]pyridin-1-yl)acetic acid] | 1 to 10 µM | – | –
11 | O=C(O)Cn1c(=O)n(C2CCN(S(=O)(=O)c3ccc(F)cc3Cl)CC2)c2cnccc21 [Compound 150, 2-(3-(1-(2-chloro-4-fluorophenylsulfonyl)piperidin-4-yl)-2-oxo-2,3-dihydro-1H-imidazo[4,5-c]pyridin-1-yl)acetic acid] | > 30 µM | – | –
